Measurements reported in article PMC9150106, “Phenyl Bis-Sulfonamide Keap1-Nrf2 Protein–Protein Interaction Inhibitors with an Alternative Binding Mode” (Journal of Medicinal Chemistry, 2022).
In brackets after ≈: the same amount, converted by molar mass. Counter-ions that a name gives are not always drawn.

What was measured:
[1] = tested on: NQO1 enzymatic activity (Nrf2 transcriptional activity); test: NQO1 enzyme activity assay in Hepa1c1c7 cells; assay type: cell-based, mouse; settings: Hepa1c1c7, 24 h
[2] = tested on: Hepa1c1c7 mouse hepatoma cells; test: Cytotoxicity seen in the NQO1 assay; assay type: cell-based
physchem = settings: pH 7.4
[3] = molecular target: Keap1 Kelch domain protein (Homo sapiens, UniProt Q14145); settings: 10 μM compound, 5 μM Keap1; Ti Keap1 + vehicle 61.3 °C
[4] = PAMPA, pH 7.4
[5] = tested on: ARPE19 retinal pigment epithelial cells; settings: human
in vitro = settings: human, Cytotoxicity IC50 concentration

Sequence of Keap1 Kelch domain protein (Q14145 321-609 limits assumed): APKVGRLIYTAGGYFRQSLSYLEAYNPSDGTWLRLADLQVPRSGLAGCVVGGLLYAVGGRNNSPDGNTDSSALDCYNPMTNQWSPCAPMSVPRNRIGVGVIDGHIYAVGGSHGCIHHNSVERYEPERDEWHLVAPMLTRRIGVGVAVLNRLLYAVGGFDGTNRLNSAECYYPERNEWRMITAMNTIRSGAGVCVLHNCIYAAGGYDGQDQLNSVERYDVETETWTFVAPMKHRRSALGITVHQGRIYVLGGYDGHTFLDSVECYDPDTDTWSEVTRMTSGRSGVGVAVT

| SMILES | solubility (physchem) | other results |
| --- | --- | --- |
| COC(=O)[C@]12CCC(C)(C)C[C@H]1[C@H]1C(=O)C=C3[C@@]4(C)C=C(C#N)C(=O)C(C)(C)[C@@H]4CC[C@@]3(C)[C@]1(C)CC2 [CDDO-Me, bardoxolone methyl] | – | NQO1 induction, concentration-response [1]: Dose-dependent induction; Concentration above which cytotoxic in NQO1 assay [2]: higher than 1 μM |
| COc1ccc(S(=O)(=O)N(CC(=O)O)c2ccc(N(CC(=O)O)S(=O)(=O)c3ccc(OC)cc3)c(OC)c2)cc1 [Compound 10, 2,2′-((2-Methoxy-1,4-phenylene)bis(((4-methoxyphenyl)sulfonyl)azanediyl))diacetic Acid] | 271 µg/mL (≈ 456 µM) | – |
| COc1ccc(S(=O)(=O)N(CC(=O)O)c2ccc(N(CC(=O)O)S(=O)(=O)c3ccc(OC)cc3)c(OCc3ccccc3)c2)cc1 [Compound 11, 2,2′-((2-(Benzyloxy)-1,4-phenylene)bis(((4-methoxyphenyl)sulfonyl)azanediyl))diacetic Acid] | 348 µg/mL (≈ 519 µM) | – |
| CCOc1cc(N(CC(=O)O)S(=O)(=O)c2ccc(OC)cc2)ccc1N(CC(=O)O)S(=O)(=O)c1ccc(OC)cc1 [Compound 31, 2,2′-((2-Ethoxy-1,4-phenylene)bis(((4-methoxyphenyl)sulfonyl)azanediyl))diacetic Acid] | 337 µg/mL (≈ 554 µM) | – |
| CCCCOc1cc(N(CC(=O)O)S(=O)(=O)c2ccc(OC)cc2)ccc1N(CC(=O)O)S(=O)(=O)c1ccc(OC)cc1 [Compound 32, 2,2′-((2-Butoxy-1,4-phenylene)bis(((4-methoxyphenyl)sulfonyl)azanediyl))diacetic Acid] | 362 µg/mL (≈ 569 µM) | – |
| COc1ccc(S(=O)(=O)N(CC(=O)O)c2ccc(N(CC(=O)O)S(=O)(=O)c3ccc(OC)cc3)c(Oc3ccccc3)c2)cc1 [Compound 33, 2,2′-((2-Phenoxy-1,4-phenylene)bis(((4-methoxyphenyl)sulfonyl)azanediyl))diacetic Acid] | 363 µg/mL (≈ 553 µM) | – |
| COc1ccc(S(=O)(=O)N(CC(=O)O)c2ccc(N(CC(=O)O)S(=O)(=O)c3ccc(OC)cc3)c(-c3ccccc3)c2)cc1 [Compound 34, 2,2′-([1,1′-Biphenyl]-2,5-diylbis(((4-methoxyphenyl)sulfonyl)azanediyl))diacetic Acid] | 298 µg/mL (≈ 465 µM) | DSF ΔTi [3]: 0.1–1.2 °C |
| CCCOc1cc(N(CC(=O)O)S(=O)(=O)c2ccc(OC)cc2)ccc1N(CC(=O)O)S(=O)(=O)c1ccc(OC)cc1 [Compound 36, 2,2′-((2-Propoxy-1,4-phenylene)bis(((4-methoxyphenyl)sulfonyl)azanediyl))diacetic Acid] | 347 µg/mL (≈ 557 µM) | – |
| COc1ccc(S(=O)(=O)N(CC(=O)O)c2ccc(N(CC(=O)O)S(=O)(=O)c3ccc(OC)cc3)c(OC(C)C)c2)cc1 [Compound 37, 2,2′-((2-Isopropoxy-1,4-phenylene)bis(((4-methoxyphenyl)sulfonyl)azanediyl))diacetic Acid] | 288 µg/mL (≈ 463 µM) | logPe (permeability coefficient) [4]: -4.74 |
| COc1ccc(S(=O)(=O)N(CC(=O)O)c2ccc(N(CC(=O)O)S(=O)(=O)c3ccc(OC)cc3)c(OCc3cccc(OC)c3)c2)cc1 [Compound 38, 2,2′-((2-((3-Methoxybenzyl)oxy)-1,4-phenylene)bis(((4-methoxyphenyl)sulfonyl)azanediyl))diacetic Acid] | 379 µg/mL (≈ 541 µM) | – |
| COc1ccc(S(=O)(=O)N(CC(=O)O)c2ccc(N(CC(=O)O)S(=O)(=O)c3ccc(OC)cc3)c(O)c2)cc1 [Compound 39, 2,2′-((2-Hydroxy-1,4-phenylene)bis(((4-methoxyphenyl)sulfonyl)azanediyl))diacetic Acid] | 343 µg/mL (≈ 591 µM) | – |
| COc1ccc(S(=O)(=O)N(CC(N)=O)c2ccc(N(CC(N)=O)S(=O)(=O)c3ccc(OC)cc3)c(OCc3ccccc3)c2)cc1 [Compound 40, 2,2′-((2-(Benzyloxy)-1,4-phenylene)bis(((4-methoxyphenyl)sulfonyl)azanediyl))diacetamide] | < 50 µg/mL | – |
| COc1ccc(S(=O)(=O)N(CC#N)c2ccc(N(CC#N)S(=O)(=O)c3ccc(OC)cc3)c(OCc3ccccc3)c2)cc1 [Compound 41, N,N′-[2-(Benzyloxy)-1,4-phenylene]bis[N-(cyanomethyl)-4-methoxybenzenesulfonamide]] | < 50 µg/mL | logPe (permeability coefficient) [4]: -4.19 |
| COc1ccc(S(=O)(=O)N(Cc2nnn[nH]2)c2ccc(N(Cc3nnn[nH]3)S(=O)(=O)c3ccc(OC)cc3)c(OCc3ccccc3)c2)cc1 [Compound 42, N-((1H-Tetrazol-5-yl)methyl)-N-(4-((N-((1H-tetrazol-5-yl)methyl)-4-methoxyphenyl)sulfonamido)-2-(benzyloxy)phenyl)-4-methoxybenzenesulfonamide] | < 50 µg/mL | – |
| COc1ccc(S(=O)(=O)N(Cc2nnn[nH]2)c2ccc(N(CC(=O)O)S(=O)(=O)c3ccc(OC)cc3)c(OCc3ccccc3)c2)cc1 [Compound 51, N-(4-((N-((1H-Tetrazol-5-yl)methyl)-4-methoxyphenyl)sulfonamido)-2-(benzyloxy)phenyl)-N-((4-methoxyphenyl)sulfonyl)glycine] | 254 µg/mL (≈ 366 µM) | – |
| COc1ccc(S(=O)(=O)N(CC(=O)O)c2ccc(N(Cc3nnn[nH]3)S(=O)(=O)c3ccc(OC)cc3)c(OCc3ccccc3)c2)cc1 [Compound 52, N-(4-((N-((1H-Tetrazol-5-yl)methyl)-4-methoxyphenyl)sulfonamido)-3-(benzyloxy)phenyl)-N-((4-methoxyphenyl)sulfonyl)glycine] | 256 µg/mL (≈ 368 µM) | – |
| COC(=O)/C=C/C(=O)OC [DMF, dimethyl fumarate] | – | NQO1 induction, concentration-response [1]: Dose-dependent induction |
| C[S+]([O-])CCCCN=C=S (centres unmarked) [Sulforaphane, sulforaphane] | – | IC50 [5]: ~10 µM; IC50 (in vitro): 9.89 ± 2.91 µM |
